Read-outs that look alike come from different tables or passages of the source.
Columns and labels:
Assay in all cases: Etest MIC of indicator carbapenems on MH II agar without/with PMBN
Assay type in all cases: cell-based
[1] = tested on: E. coli 1008078 (VIM producer)
Description: (§1) The determinations of antibiotic MIC were carried out on solid culture media with the Etest® method. To do this, Etest® strips (bioMérieux, France) were used: • Etest® Imipenem IM 32, and • Etest® Ertapenem ETP 32, and also solid culture media, differing from one another by virtue of their non-inhibitory concentrations of PMBN.
(§2) These solid culture media are prepared in Petri dishes (0=145 mm; V=50 ml) on a base of MH II Agar (Becton Dickinson®, United States), more or less supplemented with PMBN. The PMBN concentrations range from 0 up to concentrations equivalent to one fifth of the MIC of PMBN (⅕ MICPMBN).
(§3) Using a swab and the Retro C80™ rota-plater (bioMérieux, France), the culture media were inoculated with the bacteria, originating from an inoculum of 0.5 McFarland, prepared in 0.85% NaCl solution from colonies subcultured the day before on MH II agar.
(§4) The various Etest® strips are then deposited on the surface of the culture media. After 16 to 20 hours of incubation at 35° C., the MICS were read.
(§5) By way of indicator carbapenems according to the invention, in addition to imipenem (IM) and ertapenem (ETP), meropenem (MP) was also tested. Like the other two antibiotics, meropenem was used in the form of Etest® strips (Etest® Meropenem MP 32 from the company bioMérieux, France).
(§6) The methods used to prepare the new culture media and to carry out the antibiotic-sensitivity tests are identical to those described above.

[2] = tested on: K. pneumoniae KP 63 (porin−); details: Klebsiella pneumoniae
Description: as §1, §2, §3, §4, §5, §6

E. coli SAB 108 (porin−) = details: Escherichia coli
Description: as §1, §2, §3, §4, §5, §6

[3] = tested on: E. cloacae 1008080 (IMP producer); details: in µg/mL
Description: as §1, §2, §3, §4, §5, §6

[4] = tested on: E. cloacae 1204056 (membrane impermeability)
Description: as §1, §2, §3, §4, §5, §6

[5] = tested on: E. cloacae 1204153 (membrane impermeability); details: in µg/mL
Description: as §1, §2, §3, §4, §5, §6

[6] = tested on: K. pneumoniae 1204035 (membrane impermeability); details: in µg/mL
Description: as §1, §2, §3, §4, §5, §6

[7] = tested on: E. cloacae 1008074 (VIM producer)
Description: as §1, §2, §3, §4, §5, §6

[8] = tested on: E. cloacae 1204053 (membrane impermeability)
Description: as §1, §2, §3, §4, §5, §6

[9] = tested on: Enterobacter aerogenes EA 27 (porin−); details: Klebsiella aerogenes, read-out: MIC
Description: as §1, §2, §3, §4, §5, §6

E. coli SAB 100 (porin−) = details: Escherichia coli
Description: as §1, §2, §3, §4, §5, §6

[10] = tested on: K. pneumoniae 1204036 (membrane impermeability)
Description: as §1, §2, §3, §4, §5, §6

[11] = tested on: Enterobacter aerogenes EA 5 (porin−); details: Klebsiella aerogenes
Description: as §1, §2, §3, §4, §5, §6

[12] = tested on: K. pneumoniae 1204039 (membrane impermeability)
Description: as §1, §2, §3, §4, §5, §6

[13] = tested on: E. cloacae 1109137 (OXA-48 producer)
Description: as §1, §2, §3, §4, §5, §6

[14] = tested on: E. cloacae 1204058 (membrane impermeability); details: in µg/mL
Description: as §1, §2, §3, §4, §5, §6

[15] = tested on: K. pneumoniae 1103183 (NDM producer)
Description: as §1, §2, §3, §4, §5, §6

[16] = tested on: K. pneumoniae 1108003 (KPC-3 producer)
Description: as §1, §2, §3, §4, §5, §6

[17] = tested on: E. cloacae 1204051 (membrane impermeability)
Description: as §1, §2, §3, §4, §5, §6

With `C[C@@H](O)[C@H]1C(=O)N2C(C(=O)O)=C(SCCN=CN)C[C@H]12` [IM, imipenem] the MIC ([1]; [PMBN] 0, Table 4a) was 0.38 mg/L, the MIC ([1]; [PMBN] 100, Table 4a) was 1.5 mg/L and the MIC ([1]; [PMBN] 200, Table 4a) was 0.75 mg/L. For the same compound, the MIC ([1]; [PMBN] 300, Table 4a) was 0.38 mg/L, the MIC ([2]; [PMBN] 0) was 0.25 mg/L and the MIC ([2]; [PMBN] 50 μg/ml) was 0.25 mg/L. For the same compound, the MIC ([2]; [PMBN] 100 μg/ml) was 0.125 mg/L, the MIC ([2]; [PMBN] 150 μg/ml) was 0.125 mg/L and the MIC ([2]; [PMBN] 200 μg/ml) was 0.125 mg/L. For the same compound, the MIC (E. coli SAB 108 (porin−); [PMBN] 0) was 0.75 mg/L, the MIC (E. coli SAB 108 (porin−); [PMBN] 50 μg/ml) was 0.38 mg/L and the MIC (E. coli SAB 108 (porin−); [PMBN] 100 μg/ml) was 0.25 mg/L. It also gave an MIC (E. coli SAB 108 (porin−); [PMBN] 150 μg/ml) of 0.25 mg/L, an MIC (E. coli SAB 108 (porin−); [PMBN] 200 μg/ml) of 0.19 mg/L and an MIC ([3]; [PMBN] 0, Table 4a) of 1. For the same compound, the MIC ([3]; [PMBN] 100, Table 4a) was 12, the MIC ([3]; [PMBN] 200, Table 4a) was 3 and the MIC ([3]; [PMBN] 300, Table 4a) was 6. It also gave an MIC ([4]; [PMBN] 0, Table 4a) of 6 mg/L, an MIC ([4]; [PMBN] 100, Table 4a) of 2 mg/L and an MIC ([4]; [PMBN] 200, Table 4a) of 1.5 mg/L. For the same compound, the MIC ([4]; [PMBN] 300, Table 4a) was 1 mg/L, the MIC ([5]; [PMBN] 0, Table 4a) was 4 and the MIC ([5]; [PMBN] 100, Table 4a) was 4. For the same compound, the MIC ([5]; [PMBN] 200, Table 4a) was 2, the MIC ([5]; [PMBN] 300, Table 4a) was 4 and the MIC ([6]; [PMBN] 0, Table 4a) was 1.5. The MIC ([6]; [PMBN] 100, Table 4a) was 0.75, the MIC ([6]; [PMBN] 200, Table 4a) was 0.5-0.75 and the MIC ([6]; [PMBN] 300, Table 4a) was 0.5-1. It also gave an MIC ([7]; [PMBN] 0, Table 4a) of 3 mg/L, an MIC ([7]; [PMBN] 100, Table 4a) of 3 mg/L and an MIC ([7]; [PMBN] 200, Table 4a) of 8 mg/L. For the same compound, the MIC ([7]; [PMBN] 300, Table 4a) was 6 mg/L, the MIC ([8]; [PMBN] 0, Table 4a) was 3 mg/L and the MIC ([8]; [PMBN] 100, Table 4a) was 3 mg/L. The MIC ([8]; [PMBN] 200, Table 4a) was 3 mg/L, the MIC ([8]; [PMBN] 300, Table 4a) was 3 mg/L and the MIC ([9]; E. aerogenes EA 27 (porin−), [PMBN] 0, Table 4) was 12 mg/L. It also gave an MIC ([9]; E. aerogenes EA 27 (porin−), [PMBN] 50 μg/ml) of 6 mg/L, an MIC ([9]; E. aerogenes EA 27 (porin−), [PMBN] 100 μg/ml) of 3 mg/L and an MIC ([9]; E. aerogenes EA 27 (porin−), [PMBN] 150 μg/ml) of 3 mg/L. It also gave an MIC ([9]; E. aerogenes EA 27 (porin−), [PMBN] 200 μg/ml) of 3 mg/L, an MIC ([9]; EA 27 (porin−), [PMBN] 0, Table 2) of 8 mg/L and an MIC ([9]; EA 27 (porin−), [PMBN] MIC/5) of 0.03 mg/L. It also gave an MIC ([9]; EA 27 (porin−), [PMBN] MIC/8) of 0.06 mg/L, an MIC ([9]; EA 27 (porin−), [PMBN] MIC/10) of 8 mg/L and an MIC (E. coli SAB 100 (porin−); [PMBN] 0) of 0.5 mg/L. The MIC (E. coli SAB 100 (porin−); [PMBN] 50 μg/ml) was 0.38 mg/L, the MIC (E. coli SAB 100 (porin−); [PMBN] 100 μg/ml) was 0.25 mg/L and the MIC (E. coli SAB 100 (porin−); [PMBN] 150 μg/ml) was 0.19 mg/L. The MIC (E. coli SAB 100 (porin−); [PMBN] 200 μg/ml) was 0.19 mg/L, the MIC ([10]; [PMBN] 0, Table 4a) was 2 mg/L and the MIC ([10]; [PMBN] 100, Table 4a) was 2 mg/L. For the same compound, the MIC ([10]; [PMBN] 200, Table 4a) was 2 mg/L, the MIC ([10]; [PMBN] 300, Table 4a) was 1.5 mg/L and the MIC ([11]; E. aerogenes EA 5 (porin−), [PMBN] 0, Table 4) was 6 mg/L. The MIC ([11]; E. aerogenes EA 5 (porin−), [PMBN] 50 μg/ml) was 4 mg/L, the MIC ([11]; E. aerogenes EA 5 (porin−), [PMBN] 100 μg/ml) was 4 mg/L and the MIC ([11]; E. aerogenes EA 5 (porin−), [PMBN] 150 μg/ml) was 4 mg/L. It also gave an MIC ([11]; E. aerogenes EA 5 (porin−), [PMBN] 200 μg/ml) of 3 mg/L, an MIC ([11]; EA 5 (porin−), [PMBN] 0, Table 2) of 4 mg/L and an MIC ([11]; EA 5 (porin−), [PMBN] MIC/5) of 2 mg/L. The MIC ([11]; EA 5 (porin−), [PMBN] MIC/8) was 2 mg/L, the MIC ([11]; EA 5 (porin−), [PMBN] MIC/10) was 2 mg/L and the MIC ([12]; [PMBN] 0, Table 4a) was 0.38 mg/L. The MIC ([12]; [PMBN] 100, Table 4a) was 0.38 mg/L, the MIC ([12]; [PMBN] 200, Table 4a) was 0.38 mg/L and the MIC ([12]; [PMBN] 300, Table 4a) was 0.38 mg/L. It also gave an MIC ([13]; [PMBN] 0, Table 4a) of 1.5 mg/L, an MIC ([13]; [PMBN] 100, Table 4a) of 4 mg/L and an MIC ([13]; [PMBN] 200, Table 4a) of 2 mg/L. It also gave an MIC ([13]; [PMBN] 300, Table 4a) of 1.5 mg/L, an MIC ([14]; [PMBN] 0, Table 4a) greater than 32 and an MIC ([14]; [PMBN] 100, Table 4a) of 12. For the same compound, the MIC ([14]; [PMBN] 200, Table 4a) was 4, the MIC ([14]; [PMBN] 300, Table 4a) was 3 and the MIC ([15]; [PMBN] 0, Table 4a) was 24 mg/L. For the same compound, the MIC ([15]; [PMBN] 100, Table 4a) was greater than 32 mg/L, the MIC ([15]; [PMBN] 200, Table 4a) was greater than 32 mg/L and the MIC ([15]; [PMBN] 300, Table 4a) was 6 mg/L. It also gave an MIC ([16]; [PMBN] 0, Table 4a) of 6 mg/L, an MIC ([16]; [PMBN] 100, Table 4a) of 8 mg/L and an MIC ([16]; [PMBN] 200, Table 4a) of 12 mg/L. For the same compound, the MIC ([16]; [PMBN] 300, Table 4a) was 12 mg/L, the MIC ([17]; [PMBN] 0, Table 4a) was 1.5 mg/L and the MIC ([17]; [PMBN] 100, Table 4a) was 1.5 mg/L. The MIC ([17]; [PMBN] 200, Table 4a) was 0.75 mg/L and the MIC ([17]; [PMBN] 300, Table 4a) was 0.75 mg/L.

Reference: patent US20180155757A1, “IDENTIFICATION OF BACTERIA THAT ARE RESISTANT TO CARBAPENEMS BY MEMBRANE IMPERVIOUSNESS” (BIOMÉRIEUX, priority 2015, published 2018)
